The target in assay [1] is TR beta-LBD (thyroid hormone receptor beta) (Homo sapiens (Human), UniProt P10828). In words: LanthaScreen TR-FRET Thyroid Receptor beta Coactivator Assay (agonist screening). It counts as biochemical. Particulars: for THRβ-Selectivity: THR beta over THR alpha, derived from T3-selectivity normalized data; for pEC50: TR-FRET coactivator assay, TR beta-LBD 1.0 nM, 2 hour incubation, average of duplicate runs, read-out: EC50 THRβ-FRET. As for the experimental part: (§1) Example B1: Time-Resolved Fluorescence Resonance Energy Transfer (TR-FRET) Assay for Thyroid Hormone Receptor Agonist Screening
(§2) LanthaScreen™ TR-FRET Thyroid Receptor alpha Coactivator Assay kit (ThermoFisher) and LanthaScreen™ TR-FRET Thyroid Receptor beta Coactivator Assay kit (ThermoFisher) were used for agonist compound screening. Compounds in DMSO were diluted using ECHO Liquid Handler (Labcyte Inc.) into 384 plates in 10-point 3-fold series in duplicate (5 micro M final top concentration). Buffer C (ThermoFisher) was added to each well before the 4× mixture of fluorescein-SCR2-2 coactivator (200 nM final concentration), Terbium-labeled anti-GST antibody (2 nM final concentration), and TR alpha-LBD (0.4 nM final concentration) or TR beta-LBD (1.0 nM final concentration) was added. After 2 hour incubation at room temperature in dark, the TR-FRET signal was measured on an EnVision plate reader (PerkinElmer) with excitation at 340 nm and dual emission readout at 495 and 520 nm with the delay time of 100 micro second and the integration time of 200 micro second. The ratio of emission signal at 520 and at 495 was used to calculate EC50 using GraphPad Prism (GraphPad Software). In every batch of compound screening, T3 (L-3,3′,5-Triiodothyronine sodium salt, >95%) (Calbiochem) was used as reference compound. The EC50 of T3 measured were within 3-fold of the reference value provided by the assay kit manufacturer (ThermoFisher Scientific). The Z′ factors measured in every batch of screening using T3 as high percent effect (HPE) control and 0.5% DMSO as zero percent effect (ZPE) control were in the range of 0.5 to 0.8. Compounds' THR-beta selectivity values are derived from T3-selectivity normalized data.
In general terms: Time-resolved FRET reads energy transfer from a long-lived donor to a nearby acceptor.

Assay [2] concerns the target TR alpha-LBD (thyroid hormone receptor alpha) (Homo sapiens (Human), UniProt P10827). The assay can be described thus: LanthaScreen TR-FRET Thyroid Receptor alpha Coactivator Assay (agonist screening). It counts as biochemical. The following applies: TR alpha-LBD 0.4 nM, 2 hour incubation, average of duplicate runs, read-out: EC50 THRα-FRET. As for the experimental part: as §1, §2

pEC50: −log10 of the molar value.

By pEC50 is commonly meant −log10 of the EC50, conventionally taken in molar units.

TR alpha-LBD (thyroid hormone receptor alpha), sequence (P10827 other isoform, or with tags, fused parts or gaps del 1-162, other chains not shown): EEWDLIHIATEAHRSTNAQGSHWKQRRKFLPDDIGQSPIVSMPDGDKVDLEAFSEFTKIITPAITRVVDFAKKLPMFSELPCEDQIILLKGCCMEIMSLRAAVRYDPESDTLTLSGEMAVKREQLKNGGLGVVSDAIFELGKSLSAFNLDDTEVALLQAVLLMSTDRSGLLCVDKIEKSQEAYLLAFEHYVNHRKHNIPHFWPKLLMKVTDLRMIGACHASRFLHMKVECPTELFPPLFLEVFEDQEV
TR beta-LBD (thyroid hormone receptor beta), sequence (P10828 217-461): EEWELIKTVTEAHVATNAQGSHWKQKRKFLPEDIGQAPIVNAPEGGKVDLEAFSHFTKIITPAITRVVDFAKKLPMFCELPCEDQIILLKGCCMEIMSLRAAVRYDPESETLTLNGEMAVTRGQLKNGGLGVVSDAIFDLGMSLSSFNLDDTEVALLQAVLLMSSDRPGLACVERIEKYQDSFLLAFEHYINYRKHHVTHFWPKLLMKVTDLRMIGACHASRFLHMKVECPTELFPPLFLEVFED

`CC(C)c1cc(Oc2c(Cl)cc(NC(C)c3noc(=O)[nH]3)cc2Cl)nn(C)c1=O` (single isomer, unassigned) [Example 3-P1, 3-(1-((3,5-dichloro-4-((5-isopropyl-1-methyl-6-oxo-1,6-dihydropyridazin-3-yl)oxy)phenyl)amino)ethyl)-1,2,4-oxadiazol-5(4H)-one]: the THRβ-Selectivity in assay [1] was determined as 1.0. The values for the negative-log EC50 (pEC50) in assay [1] and in assay [2] were 6.56 and 7.12, respectively.

Molecule `CC(C)c1cc(Oc2c(Cl)cc(NC(C)c3noc(=O)[nH]3)cc2Cl)nn(C)c1=O` (single isomer, unassigned) [Example 3-P2, 3-(1-((3,5-dichloro-4-((5-isopropyl-1-methyl-6-oxo-1,6-dihydropyridazin-3-yl)oxy)phenyl)amino)ethyl)-1,2,4-oxadiazol-5(4H)-one] gave a THRβ-Selectivity in assay [1] of 4.2. For the same molecule, the pEC50 in assay [1] was 6.14; in assay [2], 6.09.

Regarding `CC(C)c1cc(Oc2c(Cl)cc(NCc3noc(=O)[nH]3)cc2Cl)nn(C)c1=O` [Example 1, 3-(((3,5-dichloro-4-((5-isopropyl-1-methyl-6-oxo-1,6-dihydropyridazin-3-yl)oxy)phenyl)amino)methyl)-1,2,4-oxadiazol-5(4H)-one], in assay [1], the THRβ-Selectivity was 17.2 and the pEC50 was 8.12. Further, in assay [2], the pEC50 is 7.31.

Take `CC(C)c1cc(Oc2c(Cl)cc(N(C)Cc3noc(=O)[nH]3)cc2Cl)nn(C)c1=O` [Example 2, 3-(((3,5-dichloro-4-((5-isopropyl-1-methyl-6-oxo-1,6-dihydropyridazin-3-yl)oxy)phenyl)(methyl)amino)methyl)-1,2,4-oxadiazol-5(4H)-one]: the pEC50 in assay [1] and in assay [2] was under 5.30 in each case.

Take `CC(C)c1cc(Oc2c(Cl)cc(NC(=O)c3noc(=O)[nH]3)cc2Cl)nn(C)c1=O` [Example 4, N-(3,5-dichloro-4-((5-isopropyl-1-methyl-6-oxo-1,6-dihydropyridazin-3-yl)oxy)phenyl)-5-oxo-4,5-dihydro-1,2,4-oxadiazole-3-carboxamide]: in assay [1], the THRβ-Selectivity is 31.7. For the same molecule, the pEC50 was 7.57 in assay [1] and 6.50 in assay [2].

In the case of `CC(C)c1cc(Oc2c(Cl)cc(NCc3noc(=O)[nH]3)cc2Cl)n[nH]c1=O` [Example 5, 3-(((3,5-dichloro-4-((5-isopropyl-6-oxo-1,6-dihydropyridazin-3-yl)oxy)phenyl)amino)methyl)-1,2,4-oxadiazol-5(4H)-one], in assay [1], the THRβ-Selectivity came to 27.8 and the pEC50 was 7.13. Besides, the pEC50 in assay [2] is 6.33.

`CC(C)c1cc(Oc2c(Cl)cc(OCc3noc(=O)[nH]3)cc2Cl)nn(C)c1=O` [Example 6, 3-((3,5-dichloro-4-((5-isopropyl-1-methyl-6-oxo-1,6-dihydropyridazin-3-yl)oxy)phenoxy)methyl)-1,2,4-oxadiazol-5(4H)-one] registered a THRβ-Selectivity in assay [1] of 3.6. In addition, the pEC50 in assay [1] is 7.24; in assay [2], 7.11.

With `CC(C)c1cc(Oc2c(Cl)cc(-c3cc(=O)[nH]o3)cc2Cl)nn(C)c1=O` [Example 7, 5-(3,5-dichloro-4-((5-isopropyl-1-methyl-6-oxo-1,6-dihydropyridazin-3-yl)oxy)phenyl)isoxazol-3(2H)-one], the THRβ-Selectivity in assay [1] amounted to 13.1. The pEC50 in assay [1] was 7.22; in assay [2], 6.33.

Regarding `CC(C)c1cc(Oc2c(Cl)cc(-c3cc(=O)[nH]o3)cc2Cl)n[nH]c1=O` [Example 8, 5-(3,5-dichloro-4-((5-isopropyl-6-oxo-1,6-dihydropyridazin-3-yl)oxy)phenyl)isoxazol-3(2H)-one], in assay [1], the THRβ-Selectivity is recorded as 7 and the pEC50 is 6.05. For the same molecule, the pEC50 in assay [2] was 5.64.

For the molecule `CC(C)c1cc(Oc2c(Cl)cc(-c3noc(=O)[nH]3)cc2Cl)n[nH]c1=O` [Example 9, 3-[3,5-dichloro-4-[(5-isopropyl-6-oxo-1H-pyridazin-3-yl)oxy]phenyl]-4H-1,2,4-oxadiazol-5-one], in assay [1], the THRβ-Selectivity worked out at 0.7 and the pEC50 was 6.54. Also, in assay [2], the pEC50 was 6.90.

Consider `Cc1c(NC(=O)c2noc(=O)[nH]2)cc(Cl)c(Oc2cc(C(C)C)c(=O)n(C)n2)c1Cl` [Example 11, N-(3,5-dichloro-4-((5-isopropyl-1-methyl-6-oxo-1,6-dihydropyridazin-3-yl)oxy)-2-methylphenyl)-5-oxo-4,5-dihydro-1,2,4-oxadiazole-3-carboxamide], for which, in assay [1], the THRβ-Selectivity is listed as 4.8 and the pEC50 is 6.94. Further, in assay [2], the pEC50 was 6.72.

For the molecule `Cc1c(NCc2noc(=O)[nH]2)cc(Cl)c(Oc2cc(C(C)C)c(=O)n(C)n2)c1Cl` [Example 12, 3-(((3,5-dichloro-4-((5-isopropyl-1-methyl-6-oxo-1,6-dihydropyridazin-3-yl)oxy)-2-methylphenyl)amino)methyl)-1,2,4-oxadiazol-5(4H)-one], in assay [1], the THRβ-Selectivity turned out to be 6.2 and the pEC50 is 7.15. Moreover, the pEC50 in assay [2] was 6.82.

`CC(C)c1cc(Cc2c(Cl)cc(NC(=O)c3noc(=O)[nH]3)cc2Cl)n[nH]c1=O` [Example 13, N-(3,5-dichloro-4-((5-isopropyl-6-oxo-1,6-dihydropyridazin-3-yl)methyl)phenyl)-5-oxo-4,5-dihydro-1,2,4-oxadiazole-3-carboxamide]: in assay [1], the THRβ-Selectivity worked out at 86.5 and the pEC50 is 7.27. For the same molecule, the pEC50 in assay [2] is 5.79.

The molecule `CC(C)c1cc(Cc2c(Cl)cc(NC(=O)c3noc(=O)[nH]3)cc2Cl)nn(C)c1=O` [Example 14, N-(3,5-dichloro-4-((5-isopropyl-1-methyl-6-oxo-1,6-dihydropyridazin-3-yl)methyl)phenyl)-5-oxo-4,5-dihydro-1,2,4-oxadiazole-3-carboxamide] showed a THRβ-Selectivity in assay [1] of 48. The results for the pEC50 in assay [1] and in assay [2] were 7.33 and 6.26, respectively.

As for `CC(C)c1cc(Cc2c(Cl)cc(NCc3noc(=O)[nH]3)cc2Cl)n[nH]c1=O` [Example 15, 3-(((3,5-dichloro-4-((5-isopropyl-6-oxo-1,6-dihydropyridazin-3-yl)methyl)phenyl)amino)methyl)-1,2,4-oxadiazol-5(4H)-one], in assay [1], the THRβ-Selectivity is 11.7 and the pEC50 was 7.50. Further, in assay [2], the pEC50 is 6.99.

With `CC(C)c1cc(Cc2c(Cl)cc(NCc3noc(=O)[nH]3)cc2Cl)nn(C)c1=O` [Example 16, 3-(((3,5-dichloro-4-((5-isopropyl-1-methyl-6-oxo-1,6-dihydropyridazin-3-yl)methyl)phenyl)amino)methyl)-1,2,4-oxadiazol-5(4H)-one], in assay [1], the THRβ-Selectivity came out at 6.7 and the pEC50 is 7.35. Moreover, in assay [2], the pEC50 is 7.08.

Take `CC(C)c1cc(C(=O)c2c(Cl)cc(NC(=O)c3noc(=O)[nH]3)cc2Cl)nn(C)c1=O` [Example 17, N-(3,5-dichloro-4-(5-isopropyl-1-methyl-6-oxo-1,6-dihydropyridazine-3-carbonyl)phenyl)-5-oxo-4,5-dihydro-1,2,4-oxadiazole-3-carboxamide]: in assay [1], the THRβ-Selectivity was over 7.2 and the pEC50 is 5.68. Further, the pEC50 in assay [2] is under 5.30.

The molecule `CC(C)c1cc(C(=O)c2c(Cl)cc(NCc3noc(=O)[nH]3)cc2Cl)nn(C)c1=O` [Example 18, 3-(((3,5-dichloro-4-(5-isopropyl-1-methyl-6-oxo-1,6-dihydropyridazine-3-carbonyl)phenyl)amino)methyl)-1,2,4-oxadiazol-5(4H)-one] had a THRβ-Selectivity in assay [1] of 6.1. For the same molecule, the pEC50 in assay [1] was 6.57; in assay [2], 6.26.

Turning to `CC(C)c1cc(S(=O)(=O)c2c(Cl)cc(NCc3noc(=O)[nH]3)cc2Cl)nn(C)c1=O` [Example 19, 3-(((3,5-dichloro-4-((5-isopropyl-1-methyl-6-oxo-1,6-dihydropyridazin-3-yl)sulfonyl)phenyl)amino)methyl)-1,2,4-oxadiazol-5(4H)-one], the pEC50 in assay [1] was under 5.30; in assay [2], 5.72.

In the case of `CC(C)c1cc(S(=O)(=O)c2c(Cl)cc(NC(=O)c3noc(=O)[nH]3)cc2Cl)nn(C)c1=O` [Example 20, N-(3,5-dichloro-4-((5-isopropyl-1-methyl-6-oxo-1,6-dihydropyridazin-3-yl)sulfonyl)phenyl)-5-oxo-4,5-dihydro-1,2,4-oxadiazole-3-carboxamide], the pEC50 in assay [1] and in assay [2] was under 5.30 each time.

In the case of `O=C(Nc1cc(Cl)c(Cc2cc(C3CC3)c(=O)[nH]n2)c(Cl)c1)c1noc(=O)[nH]1` [Example 21, N-(3,5-dichloro-4-((5-cyclopropyl-6-oxo-1,6-dihydropyridazin-3-yl)methyl)phenyl)-5-oxo-4,5-dihydro-1,2,4-oxadiazole-3-carboxamide], in assay [1], the THRβ-Selectivity is reported as over 113 and the pEC50 is 6.74. For the same molecule, in assay [2], the pEC50 is under 5.30.
